Marks after values point to notes of the source that are not given here.
Columns and labels:
rats with testis removed [1] = assay: Penile erection caused by stimulating electric current in rats with testes removed (Example 7); assay type: in vivo, wistar rats; settings: for Latent period / Swelling time: stimulation 35 min after administration
Excerpt: Methods: Forty healthy adult male wistar rats were used in the study, with the body weight ranging from 230 g to 250 g. The rats were anesthetized with sodium pentobarbital, and their testes were squeezed into the scrotum. After sterilization, the scrotum was dissected with an operation knife. The testes and epididymis were taken out respectively and then ligated. The wound were sutured and 100,000 unit of penicillin was administrated to each rat for three consecutive days. After breeding for one week, the rats were used for the tests. The animals may be used repeatedly and the interval between any two of the tests was one week. […] Sildenafil at the dose of 50 mg/kg was used as the positive control. The control group is (1% sodium carboxymethyl cellulose). In 35 min after the administration, the penis of the rats was stimulated with SEN-3201 stimulator (NIHON KOHDEN, Japan), with the following parameters: the stimulating voltage of 10V, the time interval (T1) of 250 msec, the deferment time (T2) of 10 msec, the duration (T3) of 500 μsec, and the stimulation rank (n) of 25. At the same time, the latent period (sec) of the penile erection and the penile swelling time (min) were recorded with a three-channel stop-watch.

rats with testis removed [2] = assay: Duration of penile erection in rats with testis removed (Example 8); assay type: in vivo, wistar rats
mice with testis removed = assay: Sexual function (back climbing) of testis-removed mice (Example 10); assay type: in vivo, KM mice; settings: for Incidence: back climbing within 2 hours after administration; for Times of back climbing / Number of the animals who performed back climbing: within 2 hours after administration; for Number of the animals who performed back climbing: 10 male mice
Excerpt: Methods: Forty healthy KM male mice with the body weight ranging from 28-32 g and forty healthy KM female mice with body weight ranging from 24-28 g were used. Each male mouse was anesthetized with sodium pentobarbital, and the testes were squeezed into the scrotum. After sterilization, the scrotum was dissected with an operating knife. The testes and epididymis were respectively taken out, and then ligated. The wound were sutured and each of the mice was administrated with 100,000 units of penicillin for three consecutive days. After being bred for one week, the mice were used for the tests. The animals may be employed repeatedly and the interval between any two tests was 72 hours. To the mice, the following compounds were orally administered: compound (1), compound (2), compound (3), and compound (4), each at the dose of 80 mg/kg and 40 mg/kg, respectively. The positive control agent was Sildenafil, at the dose of 80 mg/kg. The control group was given with 1% of sodium carboxymethyl cellulose. At 30 min after the administration, the male mice who had taken the above agents were put into the cages of female mice, with the male-to-female rate of 1:1. There were three males and three females in each cage. The times of back climbing on the female mice performed by the male mice, and the percentage of occurrence were observed within 2 hours after the administration.

anesthetized dogs = assay: Blood pressure, heart rate and respiration of anesthetized dogs (Example 11); assay type: in vivo; settings: oral 40 mg/kg; in 3 hours after administration
Method: Methods: eight healthy male dogs with the body weight ranging from 12-15 kg were used. The dogs were anesthetized with 30 mg/kg of sodium pentobarbital. The femoral artery was dissected and inserted with a blood pressure transducer to record the blood pressure. The limbs were pierced with electrodes for recording the electrocardiogram. The respiration belt was wrapped around their chest and the respiration rate was recorded. The apparatus used was RM-6000 Polygraph system (NIHON KOHDEN, Japan). The changes in the arterial blood pressure, the heart rate, and the respiration were observed after the test compound was introduced into the stomach of the anesthetized dogs via 14# catheter.

[3] = Preliminary acute toxicity, Bliss method (Example 13); settings: rat, in vivo, oral and intragastric administration, rats
Method: Experimental methods: the toxicity test was conducted by oral and intragastric administration of the pyrazolopyrimidinethione derivatives of the invention using the Bliss method.

Question: For `CCCc1nn(C)c2c(=S)[nH]c(-c3cc(S(=O)(=O)N4C[C@@H](C)N[C@@H](C)C4)ccc3OCC)nc12` [Compound (2), 5-[2-ethoxy-5-(cis-3,5-dimethylpiperazin-1-sulfonyl)phenyl]-1-methyl-3-n-propyl-1,6-dihydro-7H-pyrazolo[4,3-d]pyrimidin-7-thione], which “penile swelling time (in words)” value (rats with testis removed [1]; compared with control) is on record?
Answer: lengthened

Question: And the “latent period of the penile erection (in words)” value (rats with testis removed [1]; compared with control, P<0.001)?
Answer: evidently shortened

Question: What about the “penile swelling time compared with positive control sildenafil (in words)” value (rats with testis removed [1]; compared with sildenafil 50 mg/kg) of the same compound?
Answer: more evident

Question: What about the Latent period (rats with testis removed [1]; oral 10 mg/kg) of the same compound?
Answer: 29.5 ± 4.2 s

Question: And the Swelling time (rats with testis removed [1]; oral 10 mg/kg)?
Answer: 1069.8 ± 621.5 s

Question: What about the Latent period (rats with testis removed [1]; oral 20 mg/kg) of the same compound?
Answer: 29.5 ± 4.2 s

Question: And the Swelling time (rats with testis removed [1]; oral 20 mg/kg)?
Answer: 1480.5 ± 469.7 s

Question: And the Latent period (rats with testis removed [1]; oral 40 mg/kg)?
Answer: 30.1 ± 3.9 s

Question: And the Swelling time (rats with testis removed [1]; oral 40 mg/kg)?
Answer: 2675.5 ± 769.2 s

Question: And the Penile swelling time (rats with testis removed [2]; oral 10 mg/kg, at 1 h after administration)?
Answer: 679.6 ± 13.2 s

Question: And the Penile swelling time (rats with testis removed [2]; oral 10 mg/kg, at 3 h after administration)?
Answer: 544.7 ± 166.9 s

Question: And the Penile swelling time (rats with testis removed [2]; oral 10 mg/kg, at 6 h after administration)?
Answer: 268.7 ± 146.2 s

Question: And the Penile swelling time (rats with testis removed [2]; oral 10 mg/kg, at 24 h after administration)?
Answer: 98.6 ± 57.9 s

Question: What about the Penile swelling time (rats with testis removed [2]; oral 10 mg/kg, value before administration) of the same compound?
Answer: 67.7 ± 12.3 s

Question: What about the Penile swelling time (rats with testis removed [2]; oral 20 mg/kg, at 1 h after administration) of the same compound?
Answer: 1514.8 ± 258.9 s

Question: What about the Penile swelling time (rats with testis removed [2]; oral 20 mg/kg, at 3 h after administration) of the same compound?
Answer: 906.0 ± 406.7 s

Question: And the Penile swelling time (rats with testis removed [2]; oral 20 mg/kg, at 6 h after administration)?
Answer: 275.8 ± 154.2 s

Question: And the Penile swelling time (rats with testis removed [2]; oral 20 mg/kg, at 24 h after administration)?
Answer: 201.0 ± 85.7 s

Question: And the Penile swelling time (rats with testis removed [2]; oral 20 mg/kg, value before administration)?
Answer: 82.4 ± 26.6 s

Question: And the “how long the penile swelling effect lasts after administration” value (rats with testis removed [2]; oral 40 mg/kg and 20 mg/kg)?
Answer: up to 24 hours

Question: And the Penile swelling time (rats with testis removed [2]; oral 40 mg/kg, at 1 h after administration)?
Answer: 2187.1 ± 547.8 s

Question: And the Penile swelling time (rats with testis removed [2]; oral 40 mg/kg, at 3 h after administration)?
Answer: 783.0 ± 329.2 s

Question: And the Penile swelling time (rats with testis removed [2]; oral 40 mg/kg, at 6 h after administration)?
Answer: 678.7 ± 221.8 s

Question: What about the Penile swelling time (rats with testis removed [2]; oral 40 mg/kg, at 24 h after administration) of the same compound?
Answer: 194.0 ± 65.1 s

Question: And the Penile swelling time (rats with testis removed [2]; oral 40 mg/kg, value before administration)?
Answer: 84.0 ± 18.4 s

Question: What about the Incidence (mice with testis removed; oral 40 mg/kg) of the same compound?
Answer: 60%

Question: And the “Times of back climbing” value (mice with testis removed; oral 40 mg/kg, 40 mg/kg)?
Answer: 11*

Question: And the “Number of the animals who performed back climbing” value (mice with testis removed; oral 40 mg/kg)?
Answer: 6*

Question: And the “Times of back climbing” value (mice with testis removed; oral 40 mg/kg, listed as compound (2), 40 mg/kg)?
Answer: 11

Question: What about the Incidence (mice with testis removed; oral 80 mg/kg) of the same compound?
Answer: 80%

Question: And the “Times of back climbing” value (mice with testis removed; oral 80 mg/kg, 80 mg/kg)?
Answer: 20**

Question: What about the “Number of the animals who performed back climbing” value (mice with testis removed; oral 80 mg/kg) of the same compound?
Answer: 8**

Question: And the “Times of back climbing” value (mice with testis removed; oral 80 mg/kg, listed as compound (2), 80 mg/kg)?
Answer: 20

Question: And the “arterial blood pressure (systolic and diastolic), heart rate and respiration (frequency and depth), in words” value (anesthetized dogs)?
Answer: did not experience an evident change

Question: What about the LD50 [3] of the same compound?
Answer: > 3000 mg/kg

Source: patent US20070219220A1, “Pyrazolopyrimidinethione Derivatives, Salts and Solvates Thereof, Preparation Methods and Use Thereof” (priority 2003, published 2007)
